# Measurements as given in BindingDB's records for doi:10.7270/Q2D798VP (Broad Institute, 2009).
# Biological target: T1, Zinc finger protein mex-5 (Caenorhabditis elegans, UniProt Q9XUB2)
# T1 sequence (Q9XUB2 whole entry): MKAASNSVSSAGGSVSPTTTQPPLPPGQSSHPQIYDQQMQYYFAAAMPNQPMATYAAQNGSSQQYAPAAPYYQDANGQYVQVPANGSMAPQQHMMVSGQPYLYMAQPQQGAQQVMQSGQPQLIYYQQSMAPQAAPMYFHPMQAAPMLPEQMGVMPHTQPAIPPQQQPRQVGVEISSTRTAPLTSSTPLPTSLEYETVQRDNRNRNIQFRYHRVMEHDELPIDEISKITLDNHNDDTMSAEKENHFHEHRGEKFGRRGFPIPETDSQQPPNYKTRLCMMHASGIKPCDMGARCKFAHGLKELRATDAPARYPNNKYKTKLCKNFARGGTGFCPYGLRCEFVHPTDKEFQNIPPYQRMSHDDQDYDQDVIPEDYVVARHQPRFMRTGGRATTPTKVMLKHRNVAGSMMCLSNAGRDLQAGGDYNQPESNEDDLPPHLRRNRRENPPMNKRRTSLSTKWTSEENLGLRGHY
# Assay: potency of MEX-5 RNA-binding blockers – biochemical, C. elegans, fluorescence polarization, dose response (AID 1960)
smiles,measurement,value
"CN1CCC2=C(C#N)C(=N)C(C#N)(C#N)[C@H](c3cccc(Cl)c3)C2C1 (stereo partly drawn) [(8S)-6-amino-8-(3-chlorophenyl)-2-methyl-1,3,8,8a-tetrahydroisoquinoline-5,7,7-tricarbonitrile]",EC50,11.6 µM
"CC(C)(C)OC(=O)N1CCC2=C(C#N)C(=N)C(C#N)(C#N)[C@H](c3cccnc3)[C@H]2C1 [(8S,8aR)-6-amino-5,7,7-tricyano-8-(3-pyridinyl)-1,3,8,8a-tetrahydroisoquinoline-2-carboxylic acid tert-butyl ester]",EC50,54 µM
"C[C@@H]1O[C@@H](O[C@@H]2[C@@H](O)[C@H](OCCc3ccc(O)c(O)c3)O[C@H](CO)[C@H]2OC(=O)/C=C/c2ccc(O)c(O)c2)[C@H](O)[C@H](O)[C@H]1O [((2R,3R,4R,5R,6R)-6-(3,4-dihydroxyphenethoxy)-5-hydroxy-2-(hydroxymethyl)-4-((2S,3R,4R,5R,6S)-3,4,5-trihydroxy-6-methyltetrahydro-2H-pyran-2-yloxy)tetrahydro-2H-pyran-3-yl) 3-(3,4-dihydroxyphenyl)acrylate]",EC50,9.83 µM
"COc1ccc(C(=O)CC=Nc2ccc([N+](=O)[O-])cc2C)c(OC)c1 [(E)-1-(2,4-dimethoxyphenyl)-3-(2-methyl-4-nitro-anilino)prop-2-en-1-one]",EC50,> 300 µM
"COc1ccc(C(=O)CC=Nc2ccc([N+](=O)[O-])cc2C)cc1OC [(E)-1-(3,4-dimethoxyphenyl)-3-(2-methyl-4-nitro-anilino)prop-2-en-1-one]",EC50,150 µM
O=C(CC=Nc1ccc([N+](=O)[O-])cc1)c1ccc(Br)cc1 [(E)-1-(4-bromophenyl)-3-(4-nitroanilino)-2-propen-1-one],EC50,> 300 µM
"Cc1ccc(N=CCC(=O)c2sc(-c3ccccc3)nc2C)cc1 [(E)-1-(4-methyl-2-phenyl-1,3-thiazol-5-yl)-3-(4-toluidino)-2-propen-1-one]",EC50,> 300 µM
"Cc1nnc(SC(=Cc2ccc(-c3ccc(Cl)cc3)o2)C(=O)O)[nH]1 [(E)-3-[5-(4-chlorophenyl)furan-2-yl]-2-[(5-methyl-1H-1,2,4-triazol-3-yl)sulfanyl]prop-2-enoic acid]",EC50,29.6 µM
CC(=N)C(C#N)C(=O)CSc1ncnc2ccccc12 (stereo unspecified) [(E)-3-amino-2-(2-quinazolin-4-ylsulfanylacetyl)but-2-enenitrile],EC50,8.02 µM
"O=CC(C=Nc1ccccn1)c1nc2cc(Cl)ccc2o1 (stereo unspecified) [(Z)-2-(5-chloranyl-1,3-benzoxazol-2-yl)-3-(pyridin-2-ylamino)prop-2-enal]",EC50,36.4 µM
"CCCCN1C(=O)NC(=O)C(=CNNC(=O)c2ccncc2)C1=O [Isonicotinic acid N'-[1-butyl-2,4,6-trioxo-tetrahydro-pyrimidin-(5E)-ylidenemethyl]-hydrazide]",EC50,> 300 µM
COc1cc(C2C3CN(C)CCC3=C(C#N)C(=N)C2(C#N)C#N)ccc1OC(C)C (stereo unspecified) [MLS000034945],EC50,31.3 µM
CC(=O)Nc1ccc(N=CCC(=O)c2ccc(C)o2)cc1 [MLS000089004],EC50,> 300 µM
CC(=O)N=c1c(C#N)cc2c(=O)n3cccc(C)c3nc2n1CCCOC(C)C [MLS000332846],EC50,229 µM
COc1ccc(CCN2C(=O)NC(=O)C(=CNc3ccc(NC(C)=O)cc3)C2=O)cc1OC [MLS000332913],EC50,> 300 µM
O=C1CCCC2=Nc3cc(Cl)ccc3SC12 (stereo unspecified) [MLS000333002],EC50,8.9 µM
CCCCCCN1C(=O)C(=CNc2ccccc2N2CCOCC2)C(=O)NC1=S [MLS000333666],EC50,> 300 µM
Cc1ccc(CN=Nc2ncnc3nc[nH]c23)cc1 [MLS000419179],EC50,> 300 µM
CCOc1ccc(N=C(C(=C(Cl)C(Cl)Cl)[N+](=O)[O-])n2cncn2)cc1 [MLS000519210],EC50,45.4 µM
COc1cc(CN=Nc2ccc([N+](=O)[O-])cc2)ccc1OCC(=O)Nc1ccc(C)c(C)c1 [MLS000537060],EC50,234 µM
Cc1cc(C)cc(N2C(=O)NC(=O)C(=Cc3cccn3-c3ccc(Cl)cc3)C2=O)c1 [MLS000545741],EC50,136 µM
[H]/N=C1/OC23CCCCC2C(C#N)(C#N)C1(C#N)C(c1ccc(OC)cc1)O3 (stereo unspecified) [MLS000554241],EC50,11.2 µM
Nc1c(-c2nc3ccccc3[nH]2)c(O)cn1-c1ccc(CC(=O)O)cc1 [MLS000565528],EC50,1.59 µM
Cc1nnc(=O)[nH]c1N=NCC1C=CC(=O)C([N+](=O)[O-])=C1 (stereo unspecified) [MLS000585487],EC50,65.5 µM
O=C(N[N-][CH+]c1cc([N+](=O)[O-])ccc1N1CCCC1)c1ccccn1 [MLS000684285],EC50,70.5 µM
Cc1cc(=O)n(-c2ccc(C(=O)O)c(N)c2)[nH]1 [MLS000690508],EC50,38.3 µM
CC1=C(C#N)C(=O)N(C)C(=O)C1=CNNc1ccc(F)cc1 [MLS000702698],EC50,> 300 µM
O=C(c1ccccc1)[C@@H]1c2c(c(O)n(-c3ccc(F)cc3)c2O)C2CCCN21 (stereo partly specified) [MLS000769629],EC50,40.9 µM
O=C(O)c1ccccc1N=NCc1c(Sc2nnnn2-c2ccccc2)nc2ccccn2c1=O [MLS000775267],EC50,116 µM
CCCCOC(=O)c1ccc(NN=C2C(=O)NC(=O)C(C#N)=C2C)cc1 [MLS000778379],EC50,> 300 µM
COc1cc(C2C3=C(CC(C)(C)CC3=O)OC(=N)C2C#N)ccc1OCCN1CCOCC1 (stereo unspecified) [MLS000779948],EC50,> 300 µM
C=c1c(C(=O)OC)c(O)c(=Cc2ccco2)n1-c1ccccc1 [MLS000780287],EC50,5.06 µM
COc1ccc(C(C)N=Nc2nc3ccccc3nc2C)cc1OC (stereo unspecified) [MLS001029936],EC50,66.5 µM
CC1(C)c2[nH]c3ccccc3c2Cc2c(O)n(-c3ccc(F)cc3F)c(=O)n21 [MLS001065879],EC50,46.8 µM
O=C(/C=C/c1ccco1)NCC(=O)NNC1=c2ccccc2=NC1=O [MLS001075666],EC50,5.49 µM
O=C1N=C(O)C(C2=c3cc([N+](=O)[O-])ccc3=NC2=O)S1 (stereo unspecified) [MLS001163276],EC50,21.5 µM
CCOC(=O)C1=C(C)N=c2sc(=Cc3ccc(OCC(=O)O)cc3)c(=O)n2C1c1ccc(OC)cc1OC (stereo unspecified) [MLS001179101],EC50,60.9 µM
N#CC1C(=N)OC2=C(C(=O)CCC2)C1c1cc2c(cc1Cl)OCO2 (stereo unspecified) [MLS001183950],EC50,> 300 µM
Cc1cc(=O)[nH]c(N=NCc2ccc(O)c(O)c2)n1 [MLS001194906],EC50,125 µM
COc1ccc(N2C(=O)NC(=O)C(=Cc3cn(C)c4ccccc34)C2=O)cc1 [MLS001196573],EC50,1.15 µM
COc1ccc(OC)c(N2C(=O)C(=Cc3ccco3)C(=O)NC2=S)c1 [MLS001197216],EC50,10.8 µM
Cc1ccccc1NN=C1C(=O)N(C)c2ccccc21 [MLS001203477],EC50,> 300 µM
COc1ccc(N2C(=O)C(=Cc3ccco3)C(=O)NC2=S)cc1 [MLS001204507],EC50,3.9 µM
CCOc1ccc(N2C(=O)C(=Cc3ccco3)C(=O)NC2=S)cc1 [MLS001205052],EC50,178 µM
O=[N+]([O-])c1cc/c(=N\c2ccccc2O)c2no[nH]c1-2 [MLS001206694],EC50,28.2 µM
COc1cc2c(cc1C1C3=C(CC(C)(C)CC3=O)OC(=N)C1C#N)OCO2 (stereo unspecified) [MLS001208406],EC50,> 300 µM
"O=C1C([N+](=O)[O-])=CC(Cl)=CC1/C=N/NC(=O)C(O)(c1ccccc1)c1ccccc1 (stereo unspecified) [N''''-[(E)-(3-chloro-5-nitro-6-oxocyclohexa-2,4-dien-1-ylidene)methyl]-2-hydroxy-2,2-diphenylacetohydrazide]",EC50,40.2 µM
"O=C(NN=Cc1c(O)n(-c2ccccc2)c(=S)[nH]c1=O)c1ccc(O)cc1 [N'-[(1Z)-(4,6-dioxo-1-phenyl-2-thioxohexahydropyrimidin-5-yl)methylene]-4-hydroxybenzohydrazide]",EC50,63.7 µM
"O=C(N/N=C/C1C=C(Cl)C=C([N+](=O)[O-])C1=O)c1ccc2c(c1)OCO2 (stereo unspecified) [N'-[(E)-(3-chloranyl-5-nitro-6-oxidanylidene-cyclohexa-2,4-dien-1-ylidene)methyl]-1,3-benzodioxole-5-carbohydrazide]",EC50,241 µM
"COc1cccc(C=NNC(=O)c2ccc(=O)[nH]n2)c1O [N'-[(E)-(5-methoxy-6-oxocyclohexa-2,4-dien-1-ylidene)methyl]-6-oxo-1H-pyridazine-3-carbohydrazide]",EC50,12.6 µM
"O=C1NC(=O)N(CCc2ccc(F)cc2)C(=O)C1=CNNC(=O)c1ccccc1 [N'-[(E)-[1-[2-(4-fluorophenyl)ethyl]-2,4,6-trioxo-1,3-diazinan-5-ylidene]methyl]benzohydrazide]",EC50,> 300 µM
"O=C1NC(=O)N(CCc2ccccc2)C(=O)C1=CNNC(=O)c1ccncc1 [N'-[(E)-[2,4,6-trioxo-1-(2-phenylethyl)-1,3-diazinan-5-ylidene]methyl]-4-pyridinecarbohydrazide]",EC50,> 300 µM
"C/N=c1\ccc2nc3ccccc3n(C)c-2c1 [N,10-dimethyl-2-phenazin-10-iumamine;perchlorate]",EC50,14.8 µM
O=[N+]([O-])c1ccc(/N=N/c2ncc[nH]2)cc1 [N-(imidazol-2-ylideneamino)-4-nitroaniline],EC50,20.7 µM
"COc1ccc(N=C(C(=C(Cl)C(Cl)Cl)[N+](=O)[O-])n2nnc3ccccc32)cc1 [N-[(1E)-1-(1-benzotriazolyl)-3,4,4-trichloro-2-nitrobuta-1,3-dienyl]-4-methoxyaniline]",EC50,49.1 µM
CN(C)c1ccc(N=Cc2nc(-c3ccccc3)oc2O)cc1 [SMR000009577],EC50,5.22 µM
COc1cccc(C2C3=C(CC(c4ccco4)CC3=O)OC(=N)C2C#N)c1OCc1ccc(F)cc1 (stereo unspecified) [SMR000021029],EC50,> 300 µM
CCN(CC)c1ccc(C=NC(C#N)C(=N)C#N)cc1 (stereo unspecified) [SMR000023871],EC50,114 µM
COc1ccc(C2CC(c3ccc(Br)s3)=Nc3ncnn32)cc1OC (stereo unspecified) [SMR000032927],EC50,6.36 µM
Cc1ccc(C2C3CN(C(C)C)CCC3=C(C#N)C(=N)C2(C#N)C#N)cc1 (stereo unspecified) [SMR000034220],EC50,8.29 µM
Cc1cc(O)c(C(C)C)cc1Nc1csc(=O)[nH]1 [SMR000034713],EC50,34.6 µM
